Drawing on publication PMC8453936, “Development and in vitro Profiling of Dual FXR/LTA4H Modulators” (Chemmedchem, 2021), this text covers PPARγ activation for 1 compound.

The assay has as its target T1, PPARγ (Homo sapiens, UniProt P37231).
T1 construct: expressed in transfected cells; host or cells: HEK293T
T1 sequence (P37231 238-503 limits assumed): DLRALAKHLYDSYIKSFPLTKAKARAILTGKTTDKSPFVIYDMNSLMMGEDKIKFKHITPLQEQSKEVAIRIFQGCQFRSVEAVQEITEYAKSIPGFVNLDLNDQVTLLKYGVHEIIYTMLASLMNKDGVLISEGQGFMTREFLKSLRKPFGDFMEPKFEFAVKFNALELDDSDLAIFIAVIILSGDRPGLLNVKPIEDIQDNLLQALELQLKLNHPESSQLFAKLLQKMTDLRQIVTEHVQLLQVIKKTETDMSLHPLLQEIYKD
Put plainly: Gal4 hybrid reporter gene assay PPARγ (HEK293T). It counts as cell-based. The settings on record: relative activation, n=2. The text has this:
Isothermal titration calorimetry (ITC) confirmed binding of 8 and 19 to the recombinant proteins of both FXR LBD and LTA4H (Figure 1).
Figure 2 (a) Selectivity profiles of 8 and 19 over related nuclear receptors. […] (b) Activity of 8 and 19 in a WST‐1 cell viability assay in HepG2 cells. Data are mean±S.E.M., n=4. […] Data are mean±S.E.M. relative FXR activation (%), n≥3. […] Data are mean±S.E.M. relative LTA4H inhibition (%), n=3.
Hybrid reporter gene assays. Nuclear receptor modulation was determined in hybrid reporter gene assays using the Gal4‐fusion receptor plasmids pFA‐CMV‐hPPARα‐LBD,[39] pFA‐CMV‐hPPARγLBD,[39] pFA‐CMV‐hPPARδ‐LBD,[39] pFA‐CMV‐hLXRα‐LBD,[40] pFACMV‐hLXRβ‐LBD,[40] pFA‐CMV‐hRXRα‐LBD,[41] pFA‐CMV‐hRARα‐LBD,[41] pFA‐CMV‐hVDR‐LBD[41] and pFA‐CMV‐hCAR‐LBD[41] coding for the hinge region and ligand binding domain (LBD) of the canonical isoform of the respective nuclear receptor, pFR‐Luc (Stratagene) as reporter plasmid and pRL‐SV40 (Promega) for normalization of transfection eﬃciency. HEK293T cells were grown in DMEM high glucose, supplemented with 10 % FCS, sodium pyruvate (1 mM), penicillin (100 U/mL), and streptomycin (100 μg/mL) at 37 °C and 5 % CO2, and seeded in 96‐well plates (2.5 ⋅ 10^4 cells/well) the day before transfection. […] Luminescence was measured with an Infinite M200 luminometer (Tecan Deutschland GmbH, Germany). […]

`O=C(O)c1cccc(NC(=O)c2ccc(OCCCc3ccccc3)cc2)c1` [compound 8]: the PPARγ activation entry was “weak PPARγ activation”.
